Reference: paper PMC4977564, “Inhibition of Mycobacterium tuberculosis dihydrodipicolinate synthase by alpha-ketopimelic acid and its other structural analogues” (Scientific Reports, 2016)

Biological target: Mtb-rDapA (Mycobacterium tuberculosis, UniProt P9WP25)
Sequence (P9WP25 whole entry, looked up): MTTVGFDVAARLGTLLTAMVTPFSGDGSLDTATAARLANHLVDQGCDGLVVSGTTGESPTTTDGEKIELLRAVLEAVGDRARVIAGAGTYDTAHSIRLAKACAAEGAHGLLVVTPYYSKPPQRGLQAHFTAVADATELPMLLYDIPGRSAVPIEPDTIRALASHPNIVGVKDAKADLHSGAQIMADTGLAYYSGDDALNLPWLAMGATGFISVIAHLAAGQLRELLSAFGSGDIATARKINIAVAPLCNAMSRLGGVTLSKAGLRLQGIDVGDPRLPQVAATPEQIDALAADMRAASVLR
Test: Fluorescence-based thermal shift assay
Type: binding
Settings: ligand 0.2 mM to 1 mM; Mtb-rDapA Tm 84.8 °C
From the text: The fluorescence based thermal shift assay for screening of identified ligands, which is based on the principle that ligand binding alters thermal stability of protein. This method allows us to monitor the protein denaturation upon heating using fluorescence based dye (Sypro orange, Sigma, USA), which binds to hydrophobic part of proteins during protein denaturation and emits fluorescence at 580 nm[43]. We can monitor the changes in fluorescence and generate a thermal melting curve using real time PCR. The mid-point of the melting curve designated as the melting temperature Tm corresponding to 50% of protein being denatured.
The thermal shift assay was carried out in the LightCycler^R LC480 qPCR machine using 384 well PCR plates (Roche, USA). An assay mixture of 20 μl contained 20 μM Mtb-rDapA, 15 X Sypro Orange (Sigma), 50 mM sodium phosphate buffer pH 7.4 and ligand in the range 0.2 mM to 1 mM. The ligands and Mtb-rDapA were diluted in sodium phosphate buffer. The PCR plates were sealed with optical seal, mixed well and centrifuged after the assay mixture was added. […] The fluorescence intensity was measured by excitation at 465 nm and emission at 580 nm. Curve fitting, melting temperature calculation and report generation on the raw Fluorescence based thermal shift assay (FTS) data were performed using pre-installed analysis software provided with the instrument (Roche, USA)[44].
For `CC(=O)C(=O)O` [pyruvate], the “Tm increase of Mtb-rDapA upon binding” value was 2 °C.

Biological target: T1, recombinant Mtb-DapA (Mtb-rDapA) (Mycobacterium tuberculosis, UniProt P9WP25)
T1 sequence (P9WP25 whole entry, looked up): as above
Test: not given
Settings: pyruvate 500 μM, ASA 400 μM; up to millimolar concentrations
In the case of `Nc1ccc(C(=O)O)c(O)c1` [compound 8, 4-amino-2-hydroxy-benzoic acid], the “Inhibition of Mtb-rDapA (in words)” value is reported as “None of these showed inhibition”. With `Nc1ccc(C(=O)O)cc1` [p-amino benzoic acid] the “Inhibition of Mtb-rDapA (in words)” value was “None of these showed inhibition”. For `O=C(O)c1ccccc1` [compound 5, Benzoic acid], the “Inhibition of Mtb-rDapA (in words)” value was “None of these showed inhibition”. With `CCCCc1ccc(C(=O)O)nc1` [compound 10, 5-butylpyridine-2-carboxylic acid] the “Inhibition of Mtb-rDapA (in words)” value was “None of these showed inhibition”. With `O=C(O)COc1ccccc1` [compound 9, 2-phenoxyacetic acid] the “Inhibition of Mtb-rDapA (in words)” value was “None of these showed inhibition”. With `CCCC(=O)CC(=O)OC` [compound 7, Methyl 3-oxohexanoate] the “Inhibition of Mtb-rDapA (in words)” value was “did not show any inhibition”.

Same assay, conditions: read-out: Michaelis constant, Km; substrate of Mtb-rDapA
With `N[C@@H](CC=O)C(=O)O` [ASA, L-aspartate-beta-semialdehyde] the Km was 388 µM.

Test system: Escherichia coli DapA
Test: not given
Settings: cited from earlier work
In the case of `O=C(O)c1cccc(C(=O)O)[n+]1[O-]` [N-oxide of dipicolinic acid], the IC50 is given as 200 µM. For `COC(=N)c1cccc(C(=N)OC)n1` [di-imidate of dimethyl pyridine-2,6-dicarboxylate], the IC50 is given as 200 µM.

Same assay, conditions: competitive inhibitors, structural analogues of pyruvate; cited from earlier work
In the case of `O=C(O)C(=O)CF` [3-fluoropyruvate], the Ki is given as 220 µM. For `O=CC(=O)O` [glyoxylate], the Ki is given as 16 µM. In the case of `CCC(=O)C(=O)O` [α-ketobutyrate], the Ki is given as 830 µM. For `CCCC(=O)C(=O)O` [α-ketovalerate], the Ki is listed as 700 µM.

Biological target: T1, recombinant Mtb-DapA (Mtb-rDapA)
Test: biochemical
Settings: IC50, pyruvate 500 μM, ASA 400 μM
In the case of `O=C(O)CCCCC(O)C(=O)O` (centres unmarked) [compound 11, hydroxyheptanedioic acid], the IC50 is reported as 31 µM.

Same assay, conditions: read-out: Maximal Inhibition (%)
Molecule `CCOC(=O)CCCCSC(N)=O` [compound 27, ethyl-carbamoylthio-pentanoate] has an Emax of 34%. `CN(CCCC(=O)O)C(=O)C(=O)O` [compound 18, carboxy-methylformamido-butanoic acid] gave an Emax of 39%. Work on `Nc1ccc(C(=O)O)c(O)c1` [compound 8, 4-amino-2-hydroxy-benzoic acid] yielded an Emax of 4%. In the case of `COC(=O)CCCCC(O)C(N)=O` (centres unmarked) [compound 31, Methyl 7-amino-6-hydroxy-7-oxoheptanoate], the Emax is reported as 28%. `O=C(O)CCCC(=O)C(=O)O` [compound 2, 2-oxohexanedioic acid] gave an Emax of 40%. For `NC(=O)c1ccc(C(=O)C(=O)O)cc1` [compound 37, 2-(4-Carbamoylphenyl)-2-oxoacetic acid], the Emax was 15%. `NC(=O)CS(=O)(=O)CCCC(=O)O` [compound 30, 4-((2-amino-2-oxoethyl)sulfonyl) butanoic acid] showed an Emax of 29%. For `CN(CCCC(N)=O)C(=O)C(=O)O` [compound 14, amino-oxobutyl-methyl-amino-oxoacetic acid], the Emax was 44%. `O=C(O)c1ccccc1` [compound 5, Benzoic acid] showed an Emax of 2%. Work on `NC(=O)NC(=O)CCCC(=O)O` [compound 16, oxo-ureidopentanoic acid] yielded an Emax of 40%. Work on `CN(CCCC(N)=O)C(=O)C(N)=O` [compound 17, amino-oxobutyl-methyloxalamide] yielded an Emax of 40%. Work on `O=C(O)CCCN1C(=O)NC(=O)C1=O` [compound 36, 4-(2,4,5-Trioxoimidazolidin-1-yl) butanoic acid] yielded an Emax of 21%. Work on `CCOC(=O)C(=O)N(C)CCCC(=O)OC` [compound 15, methyl-ethoxy-methyl-oxoacetamido-butanoate] yielded an Emax of 42%. For `CCOC(=O)CCCSCC(N)=O` [compound 34, Ethyl 4-((2-amino-2-oxoethyl)thio)butanoate], the Emax was 21%. Work on `O=C(O)CCCCC(O)C(=O)O` (centres unmarked) [compound 11, hydroxyheptanedioic acid] yielded an Emax of 74%. Work on `COC(=O)CCCCC(=O)C(N)=O` [compound 32, methyl 7-amino-6,7-dioxoheptanoate] yielded an Emax of 24%. Molecule `COC(=O)c1ccc(C(=O)C(=O)O)cc1` [compound 29, methoxycarbonyl-phenyl-oxoacetic acid] has an Emax of 29%. With `CCCCc1ccc(C(=O)O)nc1` [compound 10, 5-butylpyridine-2-carboxylic acid] the Emax was 5%. For `CCOC(=O)C(=O)N(C)CCCC(N)=O` [compound 25, Ethyl-amino-oxobutyl-methyl-amino-oxoacetate], the Emax was 35%. With `COC(=O)CCCC(=O)NC(N)=O` [compound 12, Methyl-oxo-ureidopentanoate] the Emax was 65%. `O=C(O)CCCCCC(=O)O` [compound 4, heptanedioic acid] showed an Emax of 10%. For `CCOC(=O)C(=O)CCCCC(=O)O` [compound 20, Ethoxy-dioxoheptanoic acid], the Emax was 35%. `COC(=O)CCCCC(=O)c1nn[nH]n1` [compound 21, methyl-oxo-tetrazol-hexanoate] showed an Emax of 35%. `NC(=O)C(=O)c1ccc(C(=O)O)cc1` [compound 26, amino-oxoacetyl-benzoic acid] gave an Emax of 34%. In the case of `NC(=O)SCCCCC(=O)O` [compound 13, 5-(Carbamoylthio)pentanoic acid], the Emax is reported as 65%. `CCOC(=O)CCC[S+]([O-])CC(N)=O` (centres unmarked) [compound 28, Ethyl 4-((2-amino-2-oxoethyl)sulfinyl)butanoate] showed an Emax of 31%. Work on `O=C(O)COc1ccccc1` [compound 9, 2-phenoxyacetic acid] yielded an Emax of 4%. Molecule `NC(=O)CSCCCC(=O)O` [compound 38, 4-((2-Amino-2-oxoethyl)thio) butanoic acid] has an Emax of 15%. Molecule `COC(=O)c1ccc(C(=O)C(N)=O)cc1` [compound 22, Methyl-amino-oxoacetyl benzoate] has an Emax of 35%. Work on `NC(=O)CCCCC(O)C(N)=O` (centres unmarked) [compound 35, 2-Hydroxyheptanediamide] yielded an Emax of 21%. For `Nc1ccc(C(=O)O)cc1` [compound 6, p-amino benzoic acid], the Emax was 8%. For `CCOC(=O)CCCS(=O)(=O)CC(N)=O` [compound 39, Ethyl 4-((2-amino-2-oxoethyl)sulfonyl)butanoate], the Emax was 12%. `O=C(O)CCC(=O)C(=O)O` [compound 3, 2-oxopentanedioic acid] showed an Emax of 15%. In the case of `COC(=O)c1ccc(C(O)C(=O)O)cc1` (centres unmarked) [compound 24, Hydroxy-methoxycarbonyl pheny acetic acid], the Emax is reported as 35%. With `COC(=O)CCCN1C(=O)NC(=O)C1=O` [compound 19, methyl-trioxoimidazolidin -butanoate] the Emax was 38%. `O=C(O)C(=O)c1ccc(C(=O)O)cc1` [compound 33, carboxycarbonyl-benzoic acid] gave an Emax of 22%. In the case of `CCCC(=O)CC(=O)OC` [compound 7, Methyl 3-oxohexanoate], the Emax is reported as 5%. `O=C(O)c1ccc(C(O)C(=O)O)cc1` (centres unmarked) [compound 23, Carboxy-hydroxy-methyl benzoic acid] showed an Emax of 35%.
